Assay results taken from US10633338B2, “Binding Function 3 (BF3) site compounds as therapeutics and methods for their use” (THE UNIVERSITY OF BRITISH COLUMBIA, priority 2014, dated 2020).
Where two headings read alike, the source gives them in different places. Blank lines part the entries; values can stand above or below the compound they belong to.

Assays:
androgen receptor (AR) = biological target: T1, androgen receptor (AR) (Homo sapiens, UniProt P10275, T878A); experiment: eGFP cellular AR transcription assay; type: cell-based
T1 construct: stably transfected eGFP-expressing LNCaP human prostate cancer cells (LN-ARR2PB-eGFP) containing an androgen responsive probasin-derived promoter; endogenous in cells; host or cells: LNCaP (LN-ARR2PB-eGFP)
T1 sequence (P10275 1-920 T878A): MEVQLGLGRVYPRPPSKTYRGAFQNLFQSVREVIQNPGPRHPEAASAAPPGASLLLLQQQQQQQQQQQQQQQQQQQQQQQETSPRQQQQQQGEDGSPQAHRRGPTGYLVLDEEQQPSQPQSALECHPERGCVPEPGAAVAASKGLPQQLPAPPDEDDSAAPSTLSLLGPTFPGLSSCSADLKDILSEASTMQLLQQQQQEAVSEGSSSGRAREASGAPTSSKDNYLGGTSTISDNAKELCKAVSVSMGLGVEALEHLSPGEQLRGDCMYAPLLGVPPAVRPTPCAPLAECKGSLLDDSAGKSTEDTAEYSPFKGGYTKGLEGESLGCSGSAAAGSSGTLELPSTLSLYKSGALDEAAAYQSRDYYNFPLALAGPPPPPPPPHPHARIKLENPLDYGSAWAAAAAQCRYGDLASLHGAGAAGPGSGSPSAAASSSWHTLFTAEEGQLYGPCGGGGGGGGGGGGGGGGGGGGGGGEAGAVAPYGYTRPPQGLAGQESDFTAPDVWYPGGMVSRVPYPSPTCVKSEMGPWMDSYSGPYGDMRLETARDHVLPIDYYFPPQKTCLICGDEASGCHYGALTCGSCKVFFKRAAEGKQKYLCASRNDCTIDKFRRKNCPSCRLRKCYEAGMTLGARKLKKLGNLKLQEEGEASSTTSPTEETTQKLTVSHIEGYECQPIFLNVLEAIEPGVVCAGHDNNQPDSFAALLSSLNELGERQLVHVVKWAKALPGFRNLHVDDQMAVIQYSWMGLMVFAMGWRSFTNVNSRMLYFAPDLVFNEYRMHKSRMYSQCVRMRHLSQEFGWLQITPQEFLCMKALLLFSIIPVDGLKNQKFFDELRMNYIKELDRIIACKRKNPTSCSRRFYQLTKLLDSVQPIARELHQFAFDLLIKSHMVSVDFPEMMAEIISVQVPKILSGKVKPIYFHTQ
Summary of the method: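 AR transcriptional activity is read as eGFP expression from a probasin-derived androgen-responsive promoter. Compound titrated 0-100 μM in the presence of 0.1 nM R1881; 35,000 cells/well.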

PSA = experiment: Prostate Surface Antigen (PSA) assay, PSA excreted into the media; type: cell-based, human; conditions: same plates as eGFP assay
Method: The evaluation of PSA excreted into the media was performed in parallel to the eGFP assay using the same plates (see above description). After the cells were incubated for 3 days 150 μl of the media was taken from each well, and added to 150 μl of PBS.

[1] = LN-ARR2PBeGFP LNCaP cells, 0.1 nM R1881, 3 days incubation, read-out: eGFP IC50
[2] = Homo sapiens, 72 h, PSA excreted into media, 3 days incubation, read-out: PSA IC50
[3] = LN-ARR2PBeGFP LNCaP cells, 0.1 nM R1881, 3 days incubation
[4] = PSA excreted into media, 3 days incubation
[5] = LN-ARR2PB-eGFP LNCaP cells, 0.1 nM R1881, 3 days, 0-100 μM compound, read-out: IC50 (eGFP)
[6] = Homo sapiens, 72 h, media after 3 days, read-out: IC50 (PSA)

- IC50 (androgen receptor (AR); [1]): 890 nM
- IC50 (PSA; [2]): 990 nM
SMILES: Fc1cc2[nH]cc(-c3ccc4cccc(C(F)(F)F)c4n3)c2cc1F [Compound 13682]

- IC50 (androgen receptor (AR); [5]): 100 nM
- IC50 (PSA; [6]): 97 nM
SMILES: c1ccc2cc(-c3c[nH]c4cccnc34)ccc2c1 [13 703]

- IC50 (androgen receptor (AR); [1]): 210 nM
- IC50 (PSA; PSA excreted into media, 3 days incubation, read-out: PSA IC50): 190 nM
SMILES: Fc1ccc2nc(-c3c[nH]c4c(F)c(F)c(F)cc34)ccc2c1 [Compound 13776]

- IC50 (androgen receptor (AR); [1]): 300 nM
- IC50 (PSA; [2]): 303 nM
SMILES: Fc1cc2c(-c3ccc4cccc(Cl)c4n3)c[nH]c2c(F)c1F [Compound 13773]

- IC50 (androgen receptor (AR); [1]): 2600 nM
- IC50 (PSA; [2]): 1910 nM
SMILES: Brc1ccc2[nH]cc(-c3ccc4ccccc4n3)c2c1 [Compound 13683]

- IC50 (androgen receptor (AR); [5]): 620 nM
- IC50 (PSA; [6]): 680 nM
SMILES: COC(=O)c1cccc2c(-c3ccc(Br)cc3)c[nH]c12 [13 736]

- IC50 (androgen receptor (AR); [1]): 1200 nM
- IC50 (PSA; [2]): 2030 nM
SMILES: Fc1ccc(CSc2c[nH]c3ccccc23)cc1 [Compound 13410]

- IC50 (androgen receptor (AR); [1]): 760 nM
- IC50 (PSA; [2]): 750 nM
SMILES: Cc1cccc2c(-c3ccc4cccnc4c3)c[nH]c12 [Compound 13744]

- IC50 (androgen receptor (AR); [1]): 990 nM
- IC50 (PSA; [2]): 460 nM
SMILES: Fc1ccc(F)c2c(-c3ccc4ccccc4n3)c[nH]c12 [Compound 13656]

- IC50 (androgen receptor (AR); [5]): 920 nM
- IC50 (PSA; [6]): 160 nM
SMILES: Cc1cccc2c(-c3cnc4ccccc4c3)c[nH]c12 [13 654]

- IC50 (androgen receptor (AR); [1]): 370 nM
- IC50 (PSA; [2]): 260 nM
SMILES: Fc1cc(F)c2[nH]cc(-c3ccc4cccc(F)c4n3)c2c1F [Compound 13752]

- IC50 (androgen receptor (AR); [1]): 3810 nM
- IC50 (PSA; [2]): 919 nM
SMILES: Cc1cccc2c(-c3ccc(-c4ccccc4)cc3)c[nH]c12 [Compound 13733]

More lines, now with the values behind:

SMILES: Cc1cccc2c(-c3cnc4cccnc4c3)c[nH]c12 [Compound 13662]
- eGFP IC50 (androgen receptor (AR); [3]): Inactive
- PSA IC50 (PSA; [4]): Inactive

SMILES: CC1(C)c2ccc(Br)cc2NC1c1c[nH]c2c(OCc3ccccc3)cccc12 (centres unmarked) [Compound 13543]
- IC50 (androgen receptor (AR); [1]): 3700 nM
- IC50 (PSA; [2]): 3190 nM

SMILES: Cc1cccc2c(-c3ccc4c(Br)ccc(Br)c4n3)c[nH]c12 [Compound 13679]
- eGFP IC50 (androgen receptor (AR); [3]): Inactive
- PSA IC50 (PSA; [4]): Inactive

SMILES: Cc1cccc2c(-c3ccc4ncsc4c3)c[nH]c12 [Compound 13757]
- eGFP IC50 (androgen receptor (AR); [3]): Inactive
- PSA IC50 (PSA; [4]): Inactive

SMILES: Cc1cccc2c(-c3ccc4ncsc4c3)c[nH]c12 [13 757]
- IC50 (eGFP) (androgen receptor (AR); LN-ARR2PB-eGFP LNCaP cells, 0.1 nM R1881, 3 days, 0-100 μM compound): IC50 (eGFP) = Inactive
- IC50 (PSA) (PSA; media after 3 days): IC50 (PSA) = Inactive

SMILES: Cc1c(F)ccc2c(-c3ccc4c(F)cccc4n3)c[nH]c12 [Compound 13631]
- eGFP IC50 (androgen receptor (AR); [3]): Inactive
- PSA IC50 (PSA; [4]): Inactive

SMILES: CC1(C)C(c2c[nH]c3c(O)cccc23)=Nc2ccccc21 [13 541]
- IC50 (androgen receptor (AR); [5]): 500 nM
- IC50 (PSA; [6]): 940 nM

SMILES: Cc1ccc2[nH]cc(C3Nc4ccccc4C3(C)C)c2c1 (centres unmarked) [Compound 13535]
- IC50 (androgen receptor (AR); [1]): 1500 nM
- IC50 (PSA; [2]): 1870 nM

SMILES: CC1(C)c2ccccc2NC1c1c[nH]c2ccccc12 (centres unmarked) [Compound 13506]
- IC50 (androgen receptor (AR); [1]): 180 nM
- IC50 (PSA; [2]): 600 nM

SMILES: Fc1cc(Cl)c2[nH]cc(-c3ccc4c(Cl)cccc4n3)c2c1 [Compound 13669]
- eGFP IC50 (androgen receptor (AR); [3]): Inactive
- PSA IC50 (PSA; [4]): Inactive

SMILES: Cc1cccc2c(-c3nc(Br)cs3)c[nH]c12 [Compound 13766]
- IC50 (androgen receptor (AR); [5]): 45 nM
- IC50 (androgen receptor (AR); [1]): 45 nM
- IC50 (PSA; [2]): 20 nM
- IC50 (PSA; [6]): 20 nM

SMILES: Cc1cc(F)cc2c(-c3ccc4ccc(F)cc4n3)n[nH]c12 [Compound 13704]
- IC50 (androgen receptor (AR); [1]): 350 nM
- IC50 (PSA; [2]): 169 nM

SMILES: CNC(=O)c1cccc2nc(-c3c[nH]c4c(C)c(F)ccc34)ccc12 [Compound 13615]
- eGFP IC50 (androgen receptor (AR); [3]): Inactive
- PSA IC50 (PSA; [4]): Inactive

SMILES: Cc1cccc2nc(-c3c[nH]c4c(C)c(F)ccc34)ccc12 [Compound 13616]
- eGFP IC50 (androgen receptor (AR); [3]): Inactive
- PSA IC50 (PSA; [4]): Inactive

SMILES: Fc1cc(F)c2[nH]cc(-c3ccc4c(F)cccc4n3)c2c1 [Compound 13671]
- eGFP IC50 (androgen receptor (AR); [3]): Inactive
- PSA IC50 (PSA; [4]): Inactive
